Like-named read-outs stand apart in the source and are kept apart here.
Legend:
HepG2 cells = assay: In vitro cytotoxicity assay (MTT cell viability) in HepG2 cells; type: cell-based, human
In short: (§1)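 CC50 was derived by 4-parameter fit of viability relative to vehicle controls, measured as MTT formazan absorbance at 492 nm after 3–4 h of reagent and DMSO solubilization. Before that, HepG2 cells seeded overnight at 20,000/well were incubated 7 days at 37°C with compound from 30 μM down to 1.0 nM in half-log steps.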

HBV [1] = assay: In vitro antiviral assay: anti-HBV replication in HepAD38 cells (extracellular HBV DNA by QPCR); type: cell-based, hepatitis B virus (genotype D, serotype ayw); details: 7 days incubation, extracellular HBV DNA by QPCR, read-out: Anti-HBV EC50
In short: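 Read-out is extracellular HBV DNA (copies/mL, QPCR standard curve) after 7-day exposure of tet-free HepAD38 cells to 10-fold dilutions from 1 μM down to 10 pM. Values normalised to DMSO vehicle; EC50 from 4-parameter nonlinear regression, with entecavir validating each run.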

HBV [2] = details: Phase 1b clinical trial, 600 mg bid dosing for 29 days; cited from earlier work
[3] = In vitro cytotoxicity assay (MTT cell viability) in HepG2 cells; type: cell-based, human; details: human
In short: as §1

[4] = Hepatitis B virus, HePAD38, 168 h

Row | Compound | EC50 (HBV [1]; [4]) [nM] | CC50 at 7 days [3] [nM] | further results
1 | Cc1cc(NC(=O)c2c(C)c(C(=O)C(=O)NC3CC(S(C)(=O)=O)C3)n(C)c2C)ccc1F (stereo not drawn) [Example 32, N-(4-fluoro-3-methylphenyl)-1,2,4-trimethyl-5-(2-(((1r,3r)-3-(methylsulfonyl)cyclobutyl)amino)-2-oxoacetyl)-1H-pyrrole-3-carboxamide] |  |  | CC50 (HepG2 cells; human, 7 days): > 30000 nM; EC50 (HBV [1]): 50 to 499 nM
2 | Cc1cc(NC(=O)c2c(C)c(C(=O)C(=O)NC3(C)CC(OP(=O)(O)O)C3)n(C)c2C)ccc1F (stereo not drawn) [Example 64, sodium (1s,3s)-3-(2-(4-((4-fluoro-3-methylphenyl)carbamoyl)-1,3,5-trimethyl-1H-pyrrol-2-yl)-2-oxoacetamido)-3-methylcyclobutyl phosphate] | > 1000 |  | CC50 (HepG2 cells; HepG2 cells, 7 days incubation, MTT, read-out: HepG2 CC50): > 30000 nM
3 | O=C(Nc1cc(F)c(F)c(F)c1)c1ccc(F)c(S(=O)(=O)N2CCC(O)CC2)c1 [NVR 3-778] |  |  | reduction in HBV DNA (HBV [2]): −1.7 log 10
4 | CCN(C(=O)C(=O)c1c(C)c(C(=O)Nc2ccc(F)c(C)c2)c(C)n1C)C(C)C [Example 186, 5-(2-(ethyl(isopropyl)amino)-2-oxoacetyl)-N-(4-fluoro-3-methylphenyl)-1,2,4-trimethyl-1H-pyrrole-3-carboxamide] | 500 to 1000 | > 30000 | 
5 | Cc1noc(C2(NC(=O)c3c(C)c(C(=O)C(=O)Nc4cccnc4)n(C)c3C)CC2)n1 [Example 30, 1,2,4-trimethyl-N-(1-(3-methyl-1,2,4-oxadiazol-5-yl)cyclopropyl)-5-(2-oxo-2-(pyridin-3-ylamino)acetyl)-1H-pyrrole-3-carboxamide] | > 1000 | > 30000 | 

Reference: patent US20230107941A1, “HEPATITIS B CAPSID ASSEMBLY MODULATORS” (Venatorx Pharmaceuticals, Inc., priority 2019, published 2023)
